Results published in US20150174145A1, “Pharmaceutical compounds with the structure of ionic salts with antibiotic and anticancer action” (priority 2013, published 2015).
Like-named read-outs stand apart in the source and are kept apart here.

What was measured:
[1] = test system: HepG2 (hepatocellular liver carcinoma cell); test: MTT cellular viability/proliferation, cancer cell lines; type: cell-based, human; conditions: HepG2, MTT assay
Protocol: (§1) At about 70-80% confluence, cells were enzymatically detached with 0.05% trypsin and 0.5 mM EDTA and seeded at 10^4 cells cm^−2.
(§2) After an attachment period of 24 hours, the culture medium was renewed, and supplemented with different concentrations (0.005-500 mM) of the ampicillin derived ionic liquid. Cell cultures were maintained in a 5% CO2 humidified atmosphere at 37° C.
(§3) Cellular viability/proliferation was assessed by the MTT assay at days 1, 3 and 5 of the culture. This assay is based on the reduction of 3-(4,5-dimethylthiazol-2-yl)-2,5-diphenyltetrazolium bromide (MTT) to a purple formazan product by viable cells.
(§4) Shortly, cultured cells were incubated at 37° C. with 0.5 mg ml −1 of MTT for 4 hours. The culture medium was then removed; the stained product dissolved with dimethylsulfoxide, and absorbance determined at 550 nm in an ELISA plate rewader. Results were expressed as absorbance per cm2.
(§5) The values of the […] (IC50) and the median lethal dose (LD50) were obtained from nonlinear regression analysis of concentration effect curves using the GGraphPad Prism Software.
(§6) It is used to measure the efficacy of a compound in inhibiting any biochemical or biological function.

[2] = test system: RKO (colon cancer cell line); test: as above; type: cell-based, human; conditions: MTT assay
Protocol: as §1, §2, §3, §4, §5, §6

[3] = test system: MG63 (osteosarcoma cell line); test: as above; type: cell-based, human; conditions: MG63, MTT assay
Protocol: as §1, §2, §3, §4, §5, §6

[4] = test system: E. coli ATCC 25922; test: Minimum inhibitory concentration, ampicillin sensitive strains; type: cell-based, Escherichia coli; conditions: for Minimum inhibitory concentrations: E. coli ATCC 25922, Gram-negative, ampicillin sensitive
Protocol: (§7) Each one of the 24 combinations of the ionic liquids were tested with following 9 bacteria: • Escherichia coli ATCC25922 • Staphylococcus aureus ATCC25923 • Klebsiella pneumonia • Staphylococcus epidermidis • Enterococcus fecalis • E. coli Tem CTXM9 • E. coli CTXM2 • E. coli AmpCMox2 • Saccharomyces cerevisiae PYCC 4072
(§8) These bacteria were tested in Vitek2 systems from bioMérieux. Bacteria were grown on Trypticase soy agar for 24 hours at 37° C. prior to each test. The bacteria assays were made in Tryptic Soy Broth.

[5] = test system: S. aureus ATCC 25923; test: as above; type: cell-based, Staphylococcus aureus; conditions: for Minimum inhibitory concentrations: S. aureus ATCC 25923, Gram-positive, ampicillin sensitive
Protocol: as §7, §8

[6] = test system: S. epidermis; test: as above; type: cell-based, Staphylococcus epidermidis; conditions: for Minimum inhibitory concentrations: S. epidermis, Gram-positive, ampicillin sensitive
Protocol: as §7, §8

[7] = test system: K. pneumoniae; test: as above; type: cell-based, Klebsiella pneumonia; conditions: for Minimum inhibitory concentrations: K. pneumoniae, Gram-negative, ampicillin sensitive
Protocol: as §7, §8

[8] = test system: E. fecalis; test: as above; type: cell-based, Enterococcus fecalis; conditions: for Minimum inhibitory concentrations: E. fecalis, Gram-positive, ampicillin sensitive
Protocol: as §7, §8

[9] = test system: gingival fibroblasts (GF); test: MTT cellular viability/proliferation, primary human cells; type: cell-based; conditions: MTT assay
Protocol: as §1, §2, §3, §4, §5, §6

[10] = test system: SF (skin fibroblasts); test: as above; type: cell-based; conditions: MTT assay
Protocol: as §1, §2, §3, §4, §5, §6

[11] = test system: T47D (ductal breast epithelial tumour cell line); test: cells; type: cell-based
Protocol: as §1, §2, §3, §4, §5, §6

[12] = test system: E. coli CTX M2; test: Minimum inhibitory concentration, ampicillin resistant strains; type: cell-based; conditions: for Minimum inhibitory concentrations: E. coli CTX M2, ampicillin resistant
Protocol: as §7, §8

[13] = test system: E. coli TEM CTX M9; test: as above; type: cell-based; conditions: for Minimum inhibitory concentrations: E. coli TEM CTX M9, ampicillin resistant
Protocol: as §7, §8

[14] = test system: E. coli AmpC MOX2; test: microbe, parasite or virus in culture; type: cell-based; conditions: for Minimum inhibitory concentrations: E. coli AmpC MOX2, ampicillin resistant
Protocol: as §7, §8

[15] = test system: PC3 (prostate cancer cell line); test: MTT cellular viability/proliferation, cancer cell lines; type: cell-based, human; conditions: PC3, MTT assay
Protocol: as §1, §2, §3, §4, §5, §6

SMILES | IC50 [2] [nM] | IC50 [3] [nM] | Minimum inhibitory concentrations [4] [mM] | Minimum inhibitory concentrations [5] [mM] | Minimum inhibitory concentrations [6] [mM] | Minimum inhibitory concentrations [7] [mM] | Minimum inhibitory concentrations [8] [mM] | IC50 [9] [nM] | Minimum inhibitory concentrations [12] [mM] | Minimum inhibitory concentrations [13] [mM] | Minimum inhibitory concentrations [14] [mM] | IC50 [15] [nM] | further results
CC1(C)S[C@@H]2[C@H](NC(=O)[C@H](N)c3ccccc3)C(=O)N2[C@H]1C(=O)[O-].C[n+]1ccn(CCO)c1 [[C2OHMIM][Amp]] | 359 | 738 | 5 | >5 | 2.5 | >5 | 5 | 462 | >5 | >5 | 5 |  | IC50 [1]: 319 nM; IC50 [10]: 5080 nM; IC50 ([11]; T47D, MTT assay): 146 nM
C[n+]1ccn(CCO)c1.[Cl-] [[C2OHMIM][Cl]] |  |  | 5 | >5 | 5 | >5 | 5 |  | 2.5 | >5 | 5 |  | 
CC1(C)S[C@@H]2[C@H](NC(=O)[C@H](N)c3ccccc3)C(=O)N2[C@H]1C(=O)[O-].CCCCCCCCCCCCCCCC[n+]1ccccc1 [[C16Pyr][Amp]] | 226 | 11 | 0.5 | 0.005 | 0.005 | 0.05 | 0.005 | 12 | 0.05 | 0.005 | >5 |  | IC50 [10]: 32 nM; IC50 ([11]; T47D, MTT assay): 5 nM
CCCCCCCCCCCCCCCC[n+]1ccccc1.[Cl-] [[C16Pyr][Cl]] |  |  | 0.5 | 0.5 | 2.5 | 2.5 | 0.5 |  | >5 | 0.5 | >5 |  | 
CC1(C)S[C@@H]2[C@H](NC(=O)[C@H](N)c3ccccc3)C(=O)N2[C@H]1C(=O)[O-].C[N+](C)(C)CCO [[Cholin][Amp]] |  | 17 | >5 | >5 | >5 | >5 | >5 |  | >5 | >5 | >5 | 982 | IC50 [1]: 1620 nM; IC50 [10]: 48500 nM
C[N+](C)(C)CCO.[Cl-] [[Cholin][Cl]] |  |  | >5 | 2.5 | >5 | >5 | >5 |  | >5 | >5 | >5 |  | 
CC1(C)S[C@@H]2[C@H](NC(=O)[C@H](N)c3ccccc3)C(=O)N2[C@H]1C(=O)[O-].CC[n+]1ccn(C)c1 [[EMIM][Amp]] | 269 |  | >5 | >5 | >5 | >5 | >5 | 853 | >5 | >5 | >5 | 30000 | 
CCn1cc[n+](C)c1.[Br-] [[EMIM][Br]] |  |  | >5 | 0.05 | 5 | >5 | >5 |  | >5 | 5 | >5 |  | 
CC1(C)S[C@@H]2[C@H](NC(=O)[C@H](N)c3ccccc3)C(=O)N2[C@H]1C(=O)[O-].[Na+] [[Na][Amp]] [sodium ampicillin] | 2410 |  | 0.05 | 0.005 | 0.05 | 2.5 | 0.05 | 109000 | >5 | >5 | >5 | 597 | 
CCCCCCCCCCCCCC[P+](CCCCCC)(CCCCCC)CCCCCC.[Cl-] [[P6,6,6,14][Cl]] |  |  | 2.5 | 2.5 | 2.5 | 2.5 | >5 |  | 5 | 2.5 | >5 |  | 
CC1(C)S[C@@H]2[C@H](NC(=O)[C@H](N)c3ccccc3)C(=O)N2[C@H]1C(=O)[O-].CC[N+](CC)(CC)CC [[TEA][Amp], tetraethyl ammonium salt of Ampicillin] | 56700 | 30 | >5 | >5 | >5 | >5 | >5 |  | >5 | >5 | >5 | 35600 | IC50 [11]: 42 nM
CC[N+](CC)(CC)CC [[TEA][Br], Tetraethylammonium bromide] |  |  |  |  |  |  |  |  |  |  |  |  | MIC ([4]; Escherichia coli, ATCC25922, read-out: Minimum inhibitory concentrations): > 5 mM; MIC ([5]; Staphylococcus aureus, ATCC25923, read-out: Minimum inhibitory concentrations): 2.5 mM; MIC ([6]; Staphylococcus epidermidis, read-out: Minimum inhibitory concentrations): > 5 mM; MIC ([7]; Klebsiella pneumoniae, read-out: Minimum inhibitory concentrations): > 5 mM; MIC ([8]; Enterococcus, read-out: Minimum inhibitory concentrations): > 5 mM; MIC ([12]; Escherichia coli, CTXM2, read-out: Minimum inhibitory concentrations): 2.5 mM; MIC ([13]; Escherichia coli, read-out: Minimum inhibitory concentrations): > 5 mM; MIC ([14]; Escherichia coli, AMPCMOX2, read-out: Minimum inhibitory concentrations, E. coli AmpC MOX2, ampicillin resistant): > 5 mM
